Tests used:
PGE-2 = test: Tumoral PGE-2 in HT-29 tumors (Example 5); assay type: in vivo, CB17SCID mice; conditions: HT-29 tumor, day 24
Experimental: (§1) HT-29 cells were prepared and implanted by standard methods using the same procedure as Example 1.
(§2) 42 CB17SCID mice were implanted with 2.5×10^6 HT-29 cells.
(§3) Mouse weight and tumor volume measurements were taken on days 0, 3, 6, 9, 12, 15, 18, 21, and 22 following randomization. After 22 days dosing, the blood from each animal was collected at 2 hours and 6 hours post dose.

[1] = test system: HT-29 xenograft colon carcinoma model; test: HT-29 xenograft tumor volume, Compound A01 vs celecoxib (Example 5); assay type: in vivo, CB17SCID mice
Experimental: as §1, §2, §3

PGE2 = test: Intratumoral concentration of PGE2 in HT-29 tumors (Example 1); assay type: in vivo, CB17SCID male mice; conditions: HT-29 tumor, day 24
Experimental: (§4) 48 CB17SCID male mice were implanted with 2.5×10^6 HT29 cells. Growth of the tumor was calculated for each animal using a caliper and the equation: V=π×ab^2/6.
(§5) Mouse weight and tumor volume measurements were taken on days 0, 3, 6, 9, 12, 15, 18, 21, and 22 following randomization.

[2] = Intratumoral concentration of Compound A01 and erlotinib (Example 1); assay type: in vivo, CB17SCID male mice; conditions: for Intratumoral concentration of Compound A01 (mean ± SD): HT-29 tumor, day 24
Experimental: as §4, §5

[3] = test system: CT26.WT murine colon carcinomas; test: CT26 tumor volume, Compound A01 vs celecoxib (Example 6); assay type: in vivo, Female Harlan Balb/c mice (BALB/cAnNHsd)
Experimental: (§6) CT26 murine colon carcinoma cells were prepared as in Example 2. Female Harlan Balb/c mice (BALB/cAnNHsd) were inoculated with 5×10^5 CT26 cells suspended in PBS (200 μL) subcutaneously high in the axilla (just under the fore limb). All mice were sorted into study groups based on caliper measurement estimation of tumor burden on Day 8 when the mean tumor burden for all animals was approximately 79 mm^3 (range of group means, 75-83 mm^3).

[4] = test system: intratumoral immune cells (CT26 tumors); test: Intratumoral immune response by flow cytometry (Example 4); assay type: in vivo, Female Envigo BALB/c (BALB/cAnNHsd) mice
Experimental: (§7) CT26 murine colon carcinoma cells were prepared as in Example 2. Female Envigo BALB/c (BALB/cAnNHsd) were inoculated with 5×10^5 CT26 cells suspended in PBS (200 μL) subcutaneously high in the axilla (just under the fore limb). […] The antibodies were administered via i.p. injection on days 3, 6, 9, 12, and 16 following inoculation. Compound A01 was given per oral daily. The mice were euthanized two hours following final dose on Day 16 and samples were prepared for testing.
Following euthanization, tumors were removed and processed to recover live cells. Red blood cells were removed. The cells were stained for surface markers and, where applicable, permeabilized for intracellular staining. The cells were washed and suspended in flow cytometry staining buffer and analyzed via flow cytometry.
The treatment had minimal effect on the relative number of Tregs (CD25^+Foxp3^+) and MDSCs (CD11b^+Ly6G^+) (as a percentage of total CD45^+ cells). […] FIG. 3 correlates CD8^+ cell percentages to tumor regression.

prostaglandin E2 (PGE2) = test: CT26 tumoral PGE-2 (Example 6); assay type: in vivo, Female Harlan Balb/c mice (BALB/cAnNHsd)
Experimental: as §6

[5] = test system: CT26 murine colon carcinoma cells; test: CT26 tumor growth, Compound A01 with anti-mPD-L1 (Example 4); assay type: in vivo, Female Envigo BALB/c (BALB/cAnNHsd) mice; conditions: for tumor growth (tumor volume): all doses 10 mg/kg, A01 oral daily, antibodies i.p.
Experimental: as §7

[6] = of total CD8+CD4− T cells, Day 16, doses 10 mg/kg
[7] = percentage of total CD45+ cells, Day 16, doses 10 mg/kg

Intratumoral concentration of Compound A01 (mean ± SD) ([2]; A01 1 mg/kg): 1478.5 ± 652.1 µg/g | Intratumoral concentration of Compound A01 (mean ± SD) ([2]; A01 10 mg/kg): 9720 ± 2758.7 µg/g | increase in intratumor level of Compound A01 on addition of erlotinib ([2]; with erlotinib vs Compound A01 in the absence of erlotinib): 1.5 fold
Compound: [2H]C([2H])([2H])c1cc(Br)cc2c1O[C@H](C(F)(F)F)C(C(=O)O)=C2 [Compound A01, (S)-6-bromo-8-trideuteromethyl-2-(trifluoromethyl)-2H-chromene-3-carboxylic acid]
Mean PGE-2 (tumoral) (PGE-2; 0.1 mg/kg): 203.9 ± 157.9 ng/g | Mean PGE-2 (tumoral) (PGE-2; 0.3 mg/kg): 237.3 ± 119.8 ng/g | Mean PGE-2 (tumoral) (PGE-2; 1 mg/kg): 90.7 ± 105.1 ng/g | Mean PGE-2 (tumoral) (PGE-2; 3 mg/kg): 94.3 ± 78.4 ng/g | Mean PGE-2 (tumoral) (PGE-2; 10 mg/kg): 45.5 ± 73.4 ng/g | Tumor Volume ([1]; Day 0, 0.1 mg/kg oral daily): 65.8 mm^3 | Tumor Volume ([1]; Day 0, 0.3 mg/kg oral daily): 70.9 mm^3 | Tumor Volume ([1]; Day 0, 1 mg/kg oral daily): 68.5 mm^3 | Tumor Volume ([1]; Day 0, 3 mg/kg oral daily): 68.4 mm^3 | Tumor Volume ([1]; Day 0, 10 mg/kg oral daily): 69.0 mm^3 | Tumor Volume ([1]; Day 3, 0.1 mg/kg oral daily): 88.5 mm^3 | Tumor Volume ([1]; Day 3, 0.3 mg/kg oral daily): 83.8 mm^3 | Tumor Volume ([1]; Day 3, 1 mg/kg oral daily): 85.2 mm^3 | Tumor Volume ([1]; Day 3, 3 mg/kg oral daily): 80.3 mm^3 | Tumor Volume ([1]; Day 3, 10 mg/kg oral daily): 83.9 mm^3 | Tumor Volume ([1]; Day 6, 0.1 mg/kg oral daily): 165.0 mm^3 | Tumor Volume ([1]; Day 6, 0.3 mg/kg oral daily): 132.9 mm^3 | Tumor Volume ([1]; Day 6, 1 mg/kg oral daily): 152.8 mm^3 | Tumor Volume ([1]; Day 6, 3 mg/kg oral daily): 121.9 mm^3 | Tumor Volume ([1]; Day 6, 10 mg/kg oral daily): 107.7 mm^3 | Tumor Volume ([1]; Day 9, 0.1 mg/kg oral daily): 283.1 mm^3 | Tumor Volume ([1]; Day 9, 0.3 mg/kg oral daily): 231.5 mm^3 | Tumor Volume ([1]; Day 9, 1 mg/kg oral daily): 239.8 mm^3 | Tumor Volume ([1]; Day 9, 3 mg/kg oral daily): 190.1 mm^3 | Tumor Volume ([1]; Day 9, 10 mg/kg oral daily): 176.0 mm^3 | Tumor Volume ([1]; Day 12, 0.1 mg/kg oral daily): 360.3 mm^3 | Tumor Volume ([1]; Day 12, 0.3 mg/kg oral daily): 298.2 mm^3 | Tumor Volume ([1]; Day 12, 1 mg/kg oral daily): 311.1 mm^3 | Tumor Volume ([1]; Day 12, 3 mg/kg oral daily): 279.5 mm^3 | Tumor Volume ([1]; Day 12, 10 mg/kg oral daily): 257.7 mm^3 | Tumor Volume ([1]; Day 15, 0.1 mg/kg oral daily): 416.8 mm^3 | Tumor Volume ([1]; Day 15, 0.3 mg/kg oral daily): 350.7 mm^3 | Tumor Volume ([1]; Day 15, 1 mg/kg oral daily): 364.8 mm^3 | Tumor Volume ([1]; Day 15, 3 mg/kg oral daily): 329.1 mm^3 | Tumor Volume ([1]; Day 15, 10 mg/kg oral daily): 332.0 mm^3 | Tumor Volume ([1]; Day 18, 0.1 mg/kg oral daily): 640.9 mm^3 | Tumor Volume ([1]; Day 18, 0.3 mg/kg oral daily): 530.8 mm^3 | Tumor Volume ([1]; Day 18, 1 mg/kg oral daily): 532.6 mm^3 | Tumor Volume ([1]; Day 18, 3 mg/kg oral daily): 445.1 mm^3 | Tumor Volume ([1]; Day 18, 10 mg/kg oral daily): 357.3 mm^3 | Tumor Volume ([1]; Day 21, 0.1 mg/kg oral daily): 900.4 mm^3 | Tumor Volume ([1]; Day 21, 0.3 mg/kg oral daily): 723.5 mm^3 | Tumor Volume ([1]; Day 21, 1 mg/kg oral daily): 730.9 mm^3 | Tumor Volume ([1]; Day 21, 3 mg/kg oral daily): 622.8 mm^3 | Tumor Volume ([1]; Day 21, 10 mg/kg oral daily): 453.6 mm^3 | Tumor Volume ([1]; Day 22, 0.1 mg/kg oral daily): 987.7 mm^3 | Tumor Volume ([1]; Day 22, 0.3 mg/kg oral daily): 753.5 mm^3 | Tumor Volume ([1]; Day 22, 1 mg/kg oral daily): 772.1 mm^3 | Tumor Volume ([1]; Day 22, 3 mg/kg oral daily): 699.4 mm^3 | Tumor Volume ([1]; Day 22, 10 mg/kg oral daily): 561.8 mm^3 | Intratumoral concentration of PGE2 (mean ± SD) (PGE2; A01 1 mg/kg): 14.01 ± 30.3 µg/g | Intratumoral concentration of PGE2 (mean ± SD) (PGE2; A01 10 mg/kg): 0 µg/g | CT26 Tumor Volume ([3]; Day 8, 0.3 mg/kg): 80 ± 6 mm^3 | CT26 Tumor Volume ([3]; Day 8, 1 mg/kg): 78 ± 5 mm^3 | CT26 Tumor Volume ([3]; Day 8, 3 mg/kg): 83 ± 3 mm^3 | CT26 Tumor Volume ([3]; Day 8, 10 mg/kg): 79 ± 6 mm^3 | CT26 Tumor Volume ([3]; Day 8, 30 mg/kg): 78 ± 5 mm^3 | CT26 Tumor Volume ([3]; Day 10, 0.3 mg/kg): 139 ± 15 mm^3 | CT26 Tumor Volume ([3]; Day 10, 1 mg/kg): 118 ± 17 mm^3 | CT26 Tumor Volume ([3]; Day 10, 3 mg/kg): 127 ± 11 mm^3 | CT26 Tumor Volume ([3]; Day 10, 10 mg/kg): 121 ± 14 mm^3 | CT26 Tumor Volume ([3]; Day 10, 30 mg/kg): 119 ± 8 mm^3 | CT26 Tumor Volume ([3]; Day 13, 0.3 mg/kg): 460 ± 73 mm^3 | CT26 Tumor Volume ([3]; Day 13, 1 mg/kg): 286 ± 48 mm^3 | CT26 Tumor Volume ([3]; Day 13, 3 mg/kg): 314 ± 49 mm^3 | CT26 Tumor Volume ([3]; Day 13, 10 mg/kg): 257 ± 35 mm^3 | CT26 Tumor Volume ([3]; Day 13, 30 mg/kg): 309 ± 34 mm^3 | CT26 Tumor Volume ([3]; Day 15, 0.3 mg/kg): 694 ± 116 mm^3 | CT26 Tumor Volume ([3]; Day 15, 1 mg/kg): 433 ± 67 mm^3 | CT26 Tumor Volume ([3]; Day 15, 3 mg/kg): 560 ± 79 mm^3 | CT26 Tumor Volume ([3]; Day 15, 10 mg/kg): 590 ± 109 mm^3 | CT26 Tumor Volume ([3]; Day 15, 30 mg/kg): 563 ± 89 mm^3 | CT26 Tumor Volume ([3]; Day 17, 0.3 mg/kg): 1123 ± 198 mm^3 | CT26 Tumor Volume ([3]; Day 17, 1 mg/kg): 689 ± 114 mm^3 | CT26 Tumor Volume ([3]; Day 17, 3 mg/kg): 834 ± 114 mm^3 | CT26 Tumor Volume ([3]; Day 17, 10 mg/kg): 758 ± 130 mm^3 | CT26 Tumor Volume ([3]; Day 17, 30 mg/kg): 897 ± 101 mm^3 | Ki67+ CD8+ T cells [4, 6]: 13.75% | PD-1+ CD8+ T cells [4, 6]: 84.36% | CD4+ CD8− intratumoral T cells [4, 7]: 1.01% | CD8+ CD4− intratumoral T cells [4, 7]: 6.32% | MDSCs (CD11b+Ly6G+) [4, 7]: 12.09% | Tregs (CD25+Foxp3+) [4, 7]: 2.29% | level of Ki67+CD8+ T cells (of total CD8+CD4− T cells), in words ([4]; summary of Table 12): reduced | level of PD-1+CD8+ T cells (of total CD8+CD4− T cells), in words ([4]; summary of Table 12): reduced | percentage of intratumoral CD4+CD8− T cells (of total CD45+ cells), in words ([4]; summary of Table 12): increased | percentage of intratumoral CD8+CD4− T cells (of total CD45+ cells), in words ([4]; summary of Table 12): increased | Mean PGE-2 Concentration (CT26 tumoral) (prostaglandin E2 (PGE2); 0.3 mg/kg (Group 6)): 670 ng/g | Mean PGE-2 Concentration (CT26 tumoral) (prostaglandin E2 (PGE2); 1 mg/kg (Group 5)): 278 ng/g | Mean PGE-2 Concentration (CT26 tumoral) (prostaglandin E2 (PGE2); 30 mg/kg (Group 2)): 150 ng/g | tumor growth compared to vehicle and isotype controls ([5]; CT26, doses 10 mg/kg): slowed | tumor growth (tumor volume) ([5]; Day 3): 0 mm^3 | tumor growth (tumor volume) ([5]; Day 4): 0 mm^3 | tumor growth (tumor volume) ([5]; Day 6): 8 mm^3 | tumor growth (tumor volume) ([5]; Day 9): 97 mm^3 | tumor growth (tumor volume) ([5]; Day 11): 242 mm^3 | tumor growth (tumor volume) ([5]; Day 13): 442 mm^3 | tumor growth (tumor volume) ([5]; Day 16): 759 mm^3

— US12544356B2, “Combination of a chromene compound and a second active agent” (EUCLISES PHARMACEUTICALS, INC., priority 2016, dated 2026)
